In brackets after ≈: the same amount, converted by molar mass.
Key:
[1] = system: S. pneumoniae; experiment: MIC, broth micro-dilution (CLSI); assay type: cell-based, Streptococcus pneumoniae; settings: for MIC90 / MIC / MIC50: Streptococcus pneumoniae
[2] = system: S. aureus Xen29; experiment: Time-dependent killing assay; assay type: cell-based, Staphylococcus aureus; settings: for Time to clear all Xen29: 4× MIC
Experimental: (§1) Time kill assays were performed (in duplicate) essentially as described previously with slight modifications. Briefly, a few colonies of luminescent S. pneumoniae strain D39LUX or luminescent S. aureus ATCC 12600 (Xen29) from an overnight HBA were emulsified in normal saline and adjusted to A600 nm = 0.10 (equivalent to approx. 5 × 10^7 c.f.u. per ml) and the bacterial suspension further diluted 1:20 in saline. […] The compounds were serially diluted in 100% DMSO at 100× the final desired concentration and 100 μl of appropriate concentrations added to each 10 ml preparation. Duplicate cultures were incubated at 37°C (+ 5% CO2 for S. pneumoniae D39), with samples withdrawn at 0, 0.5, 1, 2, 4, 6, 8 and 24 h, serially diluted 10-fold and plated on HBA overnight at 37°C (+ 5% CO2 for S. pneumoniae D39) for bacterial enumeration.

[3] = system: S. pneumoniae D39; experiment: Time-dependent killing assay; assay type: cell-based, Streptococcus pneumoniae; settings: 4× MIC
Experimental: as §1

[4] = system: S. aureus Xen29; experiment: Point of resistance assay (serial passage)
[5] = S1 Table isolates, 5% FBS + 3% washed RBC
[6] = ATCC6303, ATCC 6303 (serotype 3), 5% FBS + 3% washed RBC
[7] = D39/D39LUX (serotype 2), 5% FBS

SMILES | MIC range [1, 5] | MIC90 ([1]; 21 isolates) | MIC ([1]; A66.1 (serotype 3), 5% FBS) | MIC [1, 6] | MIC [1, 7] | MIC ([1]; EF3030 (serotype 19F), 5% FBS) | MIC ([1]; L82016 (serotype 6B), 5% FBS) | MIC ([1]; P9 (serotype 6A), 5% FBS) | MIC ([1]; P21 (serotype 3), 5% FBS) | MIC50 ([1]; S1 Table isolates, 5% FBS) | MIC90 ([1]; S1 Table isolates, 5% FBS) | MIC ([1]; TIGR4 (serotype 4), 5% FBS) | MIC ([1]; WCH16 (serotype 6A), 5% FBS) | MIC ([1]; WCH43 (serotype 4), 5% FBS) | MIC ([1]; WCH46 (serotype 4), 5% FBS) | MIC ([1]; WCH57 (serotype 8), 5% FBS) | MIC ([1]; WCH77 (serotype 5), 5% FBS) | MIC ([1]; WCH86 (serotype 4), 5% FBS) | MIC ([1]; WCH89 (serotype 7), 5% FBS) | MIC ([1]; WCH92 (serotype 4), 5% FBS) | also measured
CC1(C)S[C@@H]2[C@H](NC(=O)[C@H](N)c3ccccc3)C(=O)N2[C@H]1C(=O)O [Ampicillin] | 0.06 to 1 µg/mL | 0.5 µg/mL (≈ 1.43 µM) | 0.125 µg/mL (≈ 0.358 µM) | 0.125 µg/mL | 0.125 µg/mL (≈ 0.358 µM) | 0.5 µg/mL (≈ 1.43 µM) | 0.06 µg/mL (≈ 0.172 µM) | 0.06 µg/mL (≈ 0.172 µM) | 0.06 µg/mL (≈ 0.172 µM) | 0.125 µg/mL (≈ 0.358 µM) | 0.5 µg/mL (≈ 1.43 µM) | 0.125 µg/mL (≈ 0.358 µM) | 1 µg/mL (≈ 2.86 µM) | 0.125 µg/mL (≈ 0.358 µM) | 0.125 µg/mL (≈ 0.358 µM) | 0.5 µg/mL (≈ 1.43 µM) | 0.5 µg/mL (≈ 1.43 µM) | 0.06 µg/mL (≈ 0.172 µM) | 0.125 µg/mL (≈ 0.358 µM) | 0.5 µg/mL (≈ 1.43 µM) | MIC ([1]; WCH137 (serotype 6A), 5% FBS): 0.06 µg/mL (≈ 0.172 µM); MIC ([1]; WCH158 (serotype 19F), 5% FBS): 0.125 µg/mL (≈ 0.358 µM); MIC ([1]; WCH184 (serotype 19F), 5% FBS): 0.125 µg/mL (≈ 0.358 µM); MIC ([1]; WCH211 (serotype 11), 5% FBS): 0.125 µg/mL (≈ 0.358 µM); MIC ([1]; WU2 (serotype 3), 5% FBS): 0.125 µg/mL (≈ 0.358 µM); Time to clear all Xen29 [2]: 6 h; Regrowth after 24 h ([2]; at the concentrations tested (2× and 4× MIC)): some S. aureus regrowth was observed; Time to reduce the population below the limit of detection [3]: 8 h
CCCCCCCCCC(=O)N[C@@H](Cc1c[nH]c2ccccc12)C(=O)N[C@H](CC(N)=O)C(=O)N[C@@H](CC(=O)O)C(=O)N[C@@H]1C(=O)NCC(=O)N[C@@H](CCCN)C(=O)N[C@@H](CC(=O)O)C(=O)N[C@H](C)C(=O)N[C@@H](CC(=O)O)C(=O)NCC(=O)N[C@H](CO)C(=O)N[C@@H]([C@H](C)CC(=O)O)C(=O)N[C@@H](CC(=O)c2ccccc2N)C(=O)O[C@@H]1C [Daptomycin, daptomycin] | 0.125 to 0.5 µg/mL | 0.5 µg/mL (≈ 0.309 µM) | 0.25 µg/mL (≈ 0.154 µM) | 0.25 µg/mL | 0.25 µg/mL (≈ 0.154 µM) | 0.25 µg/mL (≈ 0.154 µM) | 0.25 µg/mL (≈ 0.154 µM) | 0.25 µg/mL (≈ 0.154 µM) | 0.25 µg/mL (≈ 0.154 µM) | 0.25 µg/mL (≈ 0.154 µM) | 0.25 µg/mL (≈ 0.154 µM) | 0.25 µg/mL (≈ 0.154 µM) | 0.25 µg/mL (≈ 0.154 µM) | 0.25 µg/mL (≈ 0.154 µM) | 0.125 µg/mL (≈ 0.0771 µM) | 0.25 µg/mL (≈ 0.154 µM) | 0.5 µg/mL (≈ 0.309 µM) | 0.125 µg/mL (≈ 0.0771 µM) | 0.5 µg/mL (≈ 0.309 µM) | 0.125 µg/mL (≈ 0.0771 µM) | MIC ([1]; D39/D39LUX (serotype 2), 10% FBS): 0.25 µg/mL (≈ 0.154 µM); MIC ([1]; WCH137 (serotype 6A), 5% FBS): 0.125 µg/mL (≈ 0.0771 µM); MIC ([1]; WCH158 (serotype 19F), 5% FBS): 0.125 µg/mL (≈ 0.0771 µM); MIC ([1]; WCH184 (serotype 19F), 5% FBS): 0.25 µg/mL (≈ 0.154 µM); MIC ([1]; WCH211 (serotype 11), 5% FBS): 0.25 µg/mL (≈ 0.154 µM); MIC ([1]; WU2 (serotype 3), 5% FBS): 0.125 µg/mL (≈ 0.0771 µM); Time to clear all Xen29 [2]: 1 h; Resistance (fold MIC) over serial passage ([4]; by day 12 of the serial passage): 8 ×MIC; Day of serial passage by which resistance developed ([4]; daily serial passage): 5 days
